Measured values published in US20070179147A1, “Methods of treating and preventing Alzheimer's disease” (priority 2006, published 2007).
“And” between values parts separate entries of the source, which are not always exact repeats. Identical values can stand only once. “Also recorded” adds a separate entry of the source. Like-named read-outs stand apart in the source and are kept apart here.

Experiments:
primary cortical neurons [1] = experiment: Neuroprotection against H2O2-induced oxidative stress (MTS assay), comparison with known neuroprotectants; format: cell-based, rat; conditions: 24 h pre-treatment, harsh H2O2 treatment (150 μM)
Method: Twice, half the amount of medium was replaced with fresh neurobasal medium containing no antioxidants. […] The other known neuroprotectants were dissolved in appropriate solvents and diluted to the final concentrations as indicated. […] Each assay was performed in triplicate. After 24 hours, the cultures were evaluated for viability and mitochondrial function using a standard MTS Assay (Promega). The manufacturer's protocols were followed. Experiments were carried out in accordance with the above study design. […] Ginkgo biloba was dissolved in dH2O at a concentration of 6 mg/ml, and further diluted in the neurobasal medium to final concentrations of 2.5 μ/ml, 5 μg/ml, 25 μg/ml, and 250 μg/ml. […] The plates were returned to the incubator at 37° C. with 5% CO2 for one hour. Subsequently, 20 μl MTS reagent was added to each well and the plates were incubated at 37° C. with 5% CO2 for an additional two hours. The absorbance at 490 nm for each well was recorded with the BioRad plate reader (Model 550). Wells containing medium alone were used as blanks. Each data point is the average of three separate assay wells. […] Two-week-old primary cultures were used for this set of study.

cortical neurons [2] = conditions: for protection from neuronal cell death (morphology): 5 μM, hypoxia
Method: Experiments were performed in a 96-well plate format. Cortical neurons were seeded at a density of 50,000 cells/well on a poly-D-lysine coated surface, and cultured in serum-free medium (NB plus B27 supplement) to obtain cultures highly enriched for neurons. Neurons were cultured for over 14 d.i.v. to increase cell susceptibility to excitatory amino acids (Jiang et al., 2001). Six replicate wells were treated as a group to facilitate assay quantitation.
Treatment with drug was continued during and subsequent to a 24-hour period of hypoxia. Cellular morphology and function (MTS and LDH assays) were measured 24 or 48 hours subsequent to the hypoxic insult.
The MTS assay is a colorimetric assay that measures the mitochondrial function in metabolically active cells. This measurement indirectly reflects cell viability. […] 20 μl of MTS reagent (Promega) are added to each well of the 96 well assay plates containing the samples in 100 μl of culture medium. The plate is then incubated in a humidified, 5% CO2 atmosphere at 37° C. for 1-2 hours until the color is fully developed. The absorbance at 490 nm was recorded using a Bio-Rad 96 well plate reader.
The lactate dehydrogenase (LDH) assay is based on the reduction of NAD by the action of LDH. The resulting reduced NAD (NADH) is utilized in the stoichiometric conversion of a tetrazolium dye. If cell-free aliquots of medium from cultures given different treatments are assayed, then the amount of LDH activity can be used as an indicator of relative cell death as well as a function of membrane integrity. A 50 μl aliquot of culture medium from a well in tested 96-well plate is transferred into a well in unused plate and supplemented with 25 μl of equally-mixed Substrate, Enzyme and Dye Solutions (Sigma). The preparation is incubated at room temperature for 20-30 minutes, and then measured spectrophotometrically at wavelength of 490 nm.

[3] = tested on: primary neurons from cortex and striatum; experiment: Neurotoxicity of Aβ peptides (morphology, LDH, MTS); format: cell-based, rat; conditions: for increase in LDH of the culture medium: 10 uM peptide, 16 day post-insult, neurons 12-16 d.i.v., 0% AO
[4] = tested on: enriched neuronal cultures (cerebellar tissue); experiment: In vitro models of excitotoxicity (H/H, glutamate, staurosporine, veratridine), MTT assay
Method: Enriched neuronal cultures were prepared from 15-day-old Sprague-Dawley rat embryos. Using aseptic techniques, the rat embryos were removed from the uterus and placed in sterile neuronal culture medium. Using a dissecting microscope, the brain tissue was removed from each embryo, with care taken to discard the meninges and blood vessels. The cerebellum was separated by gross dissection under the microscope, and only cerebellar tissue was used for the culture. Cells were dissociated by trituration of the tissue and were plated at a density of 5×10^5 cells/well onto 48-well culture plates precoated with poly(L-lysine). Cultures were maintained in a medium containing equal parts of Eagle's basal medium (without glutamine) and Ham's F-12k medium supplemented with 10% heat-inactivated horse serum, 10% fetal bovine serum, 600 μg/ml glucose, 100 μg/ml glutamine, 50 U/ml penicillin, and 50 μg/ml streptomycin. After 48 h, 10 μM cytosine arabinoside was added to inhibit non-neuronal cell division. Cells were used in experiments after 7 days in culture.
Four in vitro models of excitotoxicity were studied. Cells were either exposed to H/H conditions for 3 hrs or treated for 45 min with one of glutamate (100 μM), staurosporine (1 μM) or veratridine (10 μM). All cells were co-treated with or without PAN-811 (10 μM) in Locke's solution. At the conclusion of the respective excitotoxic exposures, the condition medium (original) was replaced. H/H was induced by incubating the cells in a humidified airtight chamber saturated with 95% nitrogen, 5% CO2 gas for 3 hrs in Locke's solution without added glucose.
Twenty-four hours after the excitotoxic insult, cell viability assessments were made. Cell damage was quantitatively assessed using a tetrazolium salt colorimetric assay with 3-(4,5-dimethylthiazol-2-yl)-2,5-diphenyltetrazolium (MTT; Sigma Chemical Co., St. Louis, Mo.). Briefly, the dye was added to each well (final concentration, 1.5 mg/ml), cells were incubated with MTT-acidified isopropanol (0.1 N HCl in isopropanol), and the absorbance intensity (540 nm) of each sample was measured in a 96-well plate reader. Values are expressed relative to vehicle-treated control cells that were maintained on each plate, and the percentage change in cell viability was calculated.

[5] = tested on: co-cultured cortical and striatal neurons; experiment: Protection from Aβ1-42 or Aβ25-35 induced neurotoxicity (morphology, LDH, MTS)
Method: Experiments were performed in a 96-well plate format. Cortical neurons were seeded at a density of 50,000 cells/well on poly-D-lysine coated surface, and cultured in serum-free medium (NB plus B27 supplement containing AO or without AO) to obtain cultures high enriched for neurons. Neurons were cultured for over 14 d.i.v. to increase cell susceptibility to excitatory amino acids (Jiang et al., 2001, supra). Three to six replicate wells were treated as a group to facilitate assay quantitation.
Lyophilized Aβs were dissolved in de-ionized and distilled water to a final concentration of 400 μM, and aliquoted and stored at −20° C. Before use, an aliquot of Aβ was removed from freezer and incubated at 37° C. for 48 hours. Neurons were cultured in NB with B27 supplement containing AO or without AO under 5% CO2 and 95% ambient air, 37° C. At 2 or 3 weeks, the neurons were treated with pre-incubated Aβ and either non-incubated Aβ or Aβ35-25 served as experimental controls.
Treatment with 2μM PAN-811 or 1:12,500 PEG:EtOH (7:3 as vehicle control) was started by at most 3 hours following Aβ insult. The neurons remained in culture post-treatment for different time periods, from 1 to 16 days.
Neuronal cell death was morphologically evaluated.
The MTS assay is a colorimetric assay that measures the mitochondrial function in metabolically active cells. This measurement indirectly reflects cell viability. […] 10 μl of MTS reagent (Promega) are added to each well of the 96 well assay plates containing the samples in 50 μl of culture medium. The plate is then incubated in a humidified, 5% CO2 atmosphere at 37° C. for 1 hour until the color is fully developed. The absorbance at 490 nm was recorded using a Bio-Rad 96 well plate reader.
Lactate dehydrogenase (LDH) assay is based on the reduction of NAD by the action of LDH. The resulting reduced NAD (NADH) is utilized in the stoichiometric conversion of a tetrazolium dye. If cell-free aliquots of medium from cultures given different treatments are assayed, then the amount of LDH activity can be used as an indicator of relative cell death as well as a function of membrane integrity. A 35μl aliquot of culture medium from a well in a 96-well test plate is transferred into a well in unused plate and supplemented with 17.5 μl of equally mixed Substrate, Enzyme and Dye Solutions (Sigma). The preparation is incubated at room temperature for 30 minutes, and then measured spectrophotometrically at a wavelength of 490 nm.
Primary neurons were isolated from cortex and striatum of 17-day-old rat embryonic brain and seeded on 96-well plates at 50,000 cells/well in regular neurobasal medium (Neurobasal Medium supplemented with B27-AO) for 2-3 weeks.
Lyophilized Aβ1-42 and Aβ25-35 were dissolved in distilled, deionized water to a final concentration of 400 uM. Aliquots of the preparations were stored at −20° C. The day before the experiment, the peptides were shifted from −20° C. to 37° C. and incubated overnight at 37° C.
The neurons at 12-16 d.i.v. and 21-23 d.i.v. were insulted by adding 2.5 ul per well of either 400 uM Aβ1-42 or 400 uM Aβ25-35 (final concentration: 10 uM). Untreated and Aβ35-25-treated wells were taken as negative controls and 25 uM glutamate treated wells were set as the positive control. At the same time as or 2-3 hours after the initiation of Aβ insults, 1:5000 diluted PEG:EtOH (vehicle for PAN-811) as well as PAN-811 at concentrations of 0.25, 05., 1 and 2 μM were added to the Aβ insulted wells. The neurons were continuously incubated at 37° C., 5% CO2. Data were obtained from the readings of 3-6 replicate wells.

[6] = Solubility of PAN-811 in solvents; conditions: PEG-300/EtOH vs EtOH
[7] = tested on: male Sprague-Dawley rats, middle cerebral artery occlusion
primary cortical neurons [8] = experiment: Protection of neurons from H2O2-induced oxidative stress (60-70 μM H2O2, MTS assay); format: cell-based, rat; conditions: 1-10 μM, 24 h pre-treatment, H2O2 60-70 μM
Method: Twice, half amount of medium was replaced with fresh neurobasal medium containing no antioxidants. […] Each assay was performed in triplicate. […] After 24 hours, the cultures were evaluated for viability and mitochondrial function using a standard MTS Assay (Promega). The manufacturer's protocols were followed. […] The plates were put back into the incubator at 37° C. with 5% CO2 for one hour, then 20 μl MTS reagent was added to each well and plates were incubated at 37° C. with 5% CO2 for an additional two hours. The absorbance at 490 nm for each well was recorded with the BioRad plate reader (Model 550). Wells containing media alone were used as blanks. Each data point is the average of three separate assay wells. […] Three-week-old primary cultures were used for this set of study. Experiments were carried out following the same procedures as experiment 1. Two-week-old primary cultures were used for this study.

cortical neurons [9] = experiment: Extreme hypoxia/hypoglycemia (H/H) model, 0.4 mM glucose
Method: (§1) Experiments were performed in a 96-well plate format. Cortical neurons were seeded at a density of 50,000 cells/well on a poly-D-lysine coated surface, and cultured in serum-free medium (NB plus B27 supplement) to obtain cultures highly enriched for neurons. […] Six replicate wells were treated as a group to facilitate assay quantitation.
(§2) The extreme H/H model (0.4 mM glucose) is a mimic of the environment in the central core of an infarct; the mild H/H model (1.63 mM glucose) is a mimic of the environment in the penumbra during MCAO; and the hypoxia only model (neurons in normal in vitro glucose concentration—25 mM) is a mimic of the environment in the penumbra after reperfusion since the possible cell death after reperfusion is predominantly a result of the hypoxic effect rather then energy failure.
Hypoxia/hypoglycemia was obtained by reducing glucose concentration down to 0.4 mM and 1.63 mM for extreme H/H and mild H/H, respectively. […] The level of O2 in the chamber was determined to be zero with an O2 indicator (FYRITE Gas Analyzer, Bacharach, Inc.). […] Mitochondrial function and cell death were evaluated at 24 or 48 hours post H/H insult with the MTS and LDH analyses (see below).
The MTS assay is a colorimetric assay that measures the mitochondrial function in metabolically active cells. […] The absorbance at 490 nm was recorded using a Bio-Rad 96 well plate reader. […]

cortical neurons [10] = conditions: for protection (Comments): 24 h pre-treatment, 6 h H/H, 24 h post, culture age 15 days, test range started from 5 μM
Method: as §1, §2
Hypoxia/hypoglycemia was obtained by reducing glucose concentration down to 0.4 mM and 1.63 mM for extreme H/H and mild H/H, respectively. BSS (116.0 mM NaCl, 5.4 mM KCl, 0.8 mM MgSO4.e7H20, 1.0 mM NaH2PO4, 1.8 mM CaCl2.2H2O, 26.2 mM NaHCO3, and 0.01 mM glycine) or BSS with 25 mM glucose were de-gassed for 5 minutes prior to use. Culture medium in the plates for hypoxia was replaced with BSS or BSS with glucose. Meanwhile, culture medium in the plates for normoxia was replaced with non de-gassed BSS or BSS with glucose. Cells were committed to hypoxic conditions by transferring the plates into a sealed container (Modular Incubator Chamber-101™, Billups-Rothenberg, Inc.), applying a vacuum for 20 minutes to remove oxygen or other gases from the culture medium, and then refilling the chamber with 5% CO2 and 95% N2 at a pressure of 30 psi for 1 minute. The level of O2 in the chamber was determined to be zero with an O2 indicator (FYRITE Gas Analyzer, Bacharach, Inc.). Culture plates were maintained in the chamber for 6 hours. As an experimental control, duplicate culture plates were maintained under normal culture condition (5% CO2 and 95% ambient air) for the same duration. After a 6-hour treatment, plates were removed from the chamber and the medium in both the hypoxic and normoxic cultures was replaced with a termination solution (DMEM supplemented with 1×sodium pyruvate, 10.0 mM HEPES, and 1×N2 supplement) containing 25 mM glucose and cultured in 5% CO2 and 95% ambient air conditions. […] MK801 was utilized as a positive control. Mitochondrial function and cell death were evaluated at 24 or 48 hours post H/H insult with the MTS and LDH analyses (see below).
The MTS assay is a colorimetric assay that measures the mitochondrial function in metabolically active cells. This measurement indirectly reflects cell viability. […] The absorbance at 490 nm was recorded using a Bio-Rad 96 well plate reader. […]

[11] = tested on: enriched neuronal cultures (cerebellar tissue); experiment: Neurotoxicity of PAN-811, 24 h treatment (MTT assay); conditions: highest concentration tested (100 μM)
Method: Enriched neuronal cultures were prepared from 15-day-old Sprague-Dawley rat embryos. Using aseptic techniques, the rat embryos were removed from the uterus and placed in sterile neuronal culture medium. Using a dissecting microscope, the brain tissue was removed from each embryo, with care taken to discard the meninges and blood vessels. The cerebellum was separated by gross dissection under the microscope, and only cerebellar tissue was used for the culture. Cells were dissociated by trituration of the tissue and were plated at a density of 5×10^5 cells/well onto 48-well culture plates precoated with poly(L-lysine). […]
Cells were treated with varying amounts of PAN-811 (0-100 μM) for 24 hrs. Cell viability was determined in the MTT assay.
Cell damage was quantitatively assessed using a tetrazolium salt colorimetric assay with 3-(4,5-dimethylthiazol-2-yl)-2,5-diphenyltetrazolium (MTT; Sigma Chemical Co., St. Louis, Mo.). Briefly, the dye was added to each well (final concentration, 1.5 mg/ml), cells were incubated with MTT-acidified isopropanol (0.1 N HCl in isopropanol), and the absorbance intensity (540 nm) of each sample was measured in a 96-well plate reader. Values are expressed relative to vehicle-treated control cells that were maintained on each plate, and the percentage change in cell viability was calculated.

primary cortical neurons [12] = experiment: ROS generation in neuronal cells (c-DCF fluorescence); format: cell-based, rat; conditions: 10 μM
Method: Twice, half the amount of medium was replaced with fresh neurobasal medium without antioxidants. […] Untreated cells loaded with the dye were used as controls to calculate the c-DCF fluorescence change. Each assay was performed in triplicate. The c-DCF fluorescence at 485/520 nm (Ex/Em) for each well was recorded with the BMG Polar Star plate reader. Wells containing cells without dye were used as blanks. Each data point is the average of three separate assay wells. Untreated cells loaded with the dye were used as a control to calculate the c-DCF fluorescence change. Two-week-old primary cultures were used for the study. CM-H2DCFDA is a cell-permeant indicator for reactive oxygen species (ROS), which is non-fluorescent until the acetate groups are removed by intracellular esterases and oxidation occurs within the cell. It has been widely employed to detect the generation of ROS in cells and animals. Here, it has been used as a tool to assess the effects of PAN-811 on ROS generation in neuronal cells following the procedures described in this example. […] Experiments were repeated four times in different batches of cells and similar results were obtained. See FIG. 2 for the representative experiment.

[13] = 10 uM, 1-6 days post-insult, older neurons (21-23 d.i.v.), 90% AO
[14] = 2 μM, 100% +AO, 1 day post-insult

Compound: Vitamin E [reference compound]
- neuroprotective capacity (primary cortical neurons [1]; known neuroprotectants): minimal neuroprotective capacity

Compound: C[C@]12N[C@H](Cc3ccccc31)c1ccccc12 [MK801, reference compound]
- protection from neuronal cell death (morphology) (cortical neurons [2]): efficient protection from neuronal cell death

Compound: Aβ1-42: amyloid beta peptide (Aβ1-42) from Sigma, used as neurotoxic insult
- increase in LDH of the culture medium [3]: ~40%

Compound: Aβ25-35: amyloid beta peptide fragment from Oncogene or Bachem, used as neurotoxic insult (GSNKGAIIGLM; Amyloid-beta protein 42; UniProt P05067 696-706, looked up, fragment)
- increase in LDH of the culture medium [3]: ~40%
- decrease in MTS reading [3, 13]: 7.5%
- increase in medium LDH reading [3, 13]: 12-18%
- concentration able to induce neurotoxicity ([3]; 100% AO): 80 µM

Compound: O=C(O)CCCC[C@@H]1CCSS1 (racemic) [lipoic acid, reference compound]
- neuroprotective capacity (primary cortical neurons [1]; known neuroprotectants): minimal neuroprotective capacity

Compound: NC(=S)N/N=C/c1ncccc1N [PAN-811, 3-aminopyridine-2-carboxaldehyde thiosemicarbazone]
- protection from damage by 3-hour hypoxia/hypoglycemia ([4]; 10 μM PAN-811): 92%
- protection from 1 μM staurosporine ([4]; 10 μM PAN-811, 45 min insult): ~47%
- protection from 10 μM veratridine ([4]; 10 μM PAN-811, 45 min insult): ~39%
- protection from 100 μM glutamate ([4]; 10 μM PAN-811, 45 min insult): ~75%
- protection from Aβ25-35 induced neuronal cell death, 3-week old neurons ([5]; 2 μM post-treatment (2 or 3h later), 10 μM Aβ25-35, 90% AO): well protected; also recorded: fully block
- MTS reading, 7-week-old mixed neurons [5, 14]: slight reduction in the MTS reading
- morphology of neurons, 7-week-old mixed neurons [5, 14]: well preserved the morphology of neurons
- protection from neuronal cell death (morphology monitoring) ([5]; 2μM, Aβ insult): efficient protection from neuronal cell death
- neuronal and neurite morphologies, younger neurons ([5]; 2 μM, at the same time as or 3 hours after Aβ1-42 or Aβ25-35 insult, 12-16 days, 0% AO): well preserved neuronal and neurite morphologies
- Aβ1-42 or Aβ25-35 induced neurotoxicity, younger neurons ([5]; 2 μM, neurons 12-16 d.i.v. (2-week old), 0% AO, 10 uM Aβ): fully block; also recorded: well protected
- LDH reading, younger neurons ([5]; 2 μM, same time or 2-3 hours post Aβ1-42 or Aβ25-35, day 16, 0% AO): down to a level lower than untreated (control) group
- neuronal and neurite morphologies, older neurons ([5]; 0.25-2 uM, same time as or 2-3 hour after Aβ insult, 90% AO, 1-6 days): well preserved neuronal and neurite morphologies
- MTS reading, older neurons ([5]; 0.25 to 1 μM, 3 hours after initiation of Aβ25-35 insult, 90% AO): up to control level
- Aβ1-42 and Aβ25-35 induced neurotoxicity, older neurons ([5]; 0.25 to 2 μM, neurons 21-23 d.i.v., 90% AO): fully blocked
- lowest dose giving full protection ([5]; administered 3 hours after initiation of Aβ25-35 insult): 0.25 µM
- solubility [6]: better solubility in PEG-300/EtOH comparing to EtOH alone
- Infarct volume, range ([7]; 1 mg/kg IV 10 minutes prior to MCAO): 42.36-387.08 mm^3
- Infarct Volume (individual rat) ([7]; 1 mg/kg IV 10 minutes prior to MCAO, 24 hours after surgery): 42.36 mm^3 and 126.42 mm^3 and 143.74 mm^3 and 158.83 mm^3 and 196.18 mm^3 and 200.08 mm^3 and 218.54 mm^3 and 221.46 mm^3 and 224.32 mm^3 and 255.36 mm^3 and 267.40 mm^3 and 344.47 mm^3 and 375.59 mm^3 and 387.08 mm^3
- Infarct Volume, mean ([7]; 1 mg/kg IV 10 minutes prior to MCAO, 24 hours after surgery, n 14): 225.85 mm^3
- rats that died ([7]; of the 7 rats that died (4 severe strokes, 3 with SAH), 6 were vehicle rats): 1
- tolerability ([7]; rat, in vivo): well tolerated and relatively non-toxic
- protection from neuronal cell death (morphology) (cortical neurons [2]): efficient protection from neuronal cell death
- neuronal cell death after hypoxia (cortical neurons [2]; 21 μM, 48 h prior, during 24-h hypoxia and 48 h after): completely blocked the cell death
- neuroprotective capacity (primary cortical neurons [8]): good neuroprotective capacity
- extreme H/H-induced neuronal cell death (cortical neurons [9]; 100 μM): only partially blocked
- protection from neuronal cell death (cortical neurons [9]; ≦50 μM, extreme H/H): did not protect neuronal cell death
- protection from mild H/H induced neurotoxicity (cortical neurons [10]; 2 μM): completely protected
- protection from H/H-induced mitochondria dysfunction and neuronal cell death (cortical neurons [10]; 5 μM, 24 h before and during 6-h H/H, MTS and LDH 17 h post insult): completely protected
- protection (Comments) (cortical neurons [10]; 5 μM): 5 μM: 100% protected
- protection (Comments) (cortical neurons [10]; 10 μM): 10 μM: 100% protected
- maximal toxicity [11]: 7.8%
- neuroprotective capacity (primary cortical neurons [1]; PAN-811 1-10 μM): good neuroprotective capacity; also recorded: significant neuroprotection
- reduction of basal level of ROS generation (primary cortical neurons [12]): ~50%
- reduction of H2O2-induced ROS generation (primary cortical neurons [12]; 1 h, then 300 μM H2O2 for 2 h): ~30%
